Laboratory results taken from the pKa sets of Baltruschat and Czodrowski (2020).
Values joined by “and” are separate entries in the source; they are usually repeats but may differ in a detail not shown here. Equal entries are not always repeated.

Compared with `COc1ccc(-c2nnc(C(=O)N3CC(Oc4ccc(CN5CCCC56COC6)cc4)C3)o2)cc1`, `CC(=O)N1CCN(c2ccc(OCC3COC(Cn4ccnc4)(c4ccc(Cl)cc4Cl)O3)cc2)CC1` (stereo not given) is lower in pKa: 6 for the first, 5.41 for the second.

First: Cc1cc(OCCN2CCOCC2)nn1-c1ccc2ccccc2c1
Second: CN1CCN(CCCN2c3ccccc3Sc3ccc(Cl)cc32)CC1
The pKa of the first is lower: 6.5 for the first, 8.1 for the second.

First: Cc1ccccc1Nc1c2ccccc2nc2ccccc12
Second: Ic1ccccc1Nc1c2ccccc2nc2ccccc12
The pKa of the first is higher: 7.76 for the first, 6.47 for the second.

`CSc1ccc2c(c1)N(CCC1CCCCN1C)c1ccccc1S2` (stereo not given) and `CN(C)CCCN1c2ccccc2CCc2ccc(Cl)cc21` are within 0.2 log units of each other in pKa: 9.5 for the first, 9.38 for the second.

Going from `Cc1cccc2nc3ccccc3c(Nc3ccc(NS(C)(=O)=O)cc3)c12` to `CS(=O)(=O)Nc1ccc(Nc2c3ccccc3nc3cccnc23)cc1`, the pKa rises from 6.43 to 6.9.

First: O=S(=O)(c1cccc(F)c1)c1ccc2c3c(oc2c1)C1(CCCOC1)NCC3 (stereo not given)
Second: O=c1ccc(-c2ccc(S(=O)(=O)Nc3cccc4c3CCCC4)s2)n[nH]1
The pKa of the first is higher: 7.5 for the first, -2.5 for the second.

Going from `BP(=O)(OC[C@H]1O[C@@H](n2cnc3c(N)nc(SC)nc32)[C@H](O)[C@@H]1O)OP(=O)(O)CP(=O)(O)O` (stereo not given in full) to `NC1OC(CO)C(O)C(O)C1O` (stereo not given), the pKa falls from 8.4 to 5.6.

Compared with `CCC12CCC(=O)C=C1c1c(cc(OCC(=O)OCC(=O)O)c(Cl)c1Cl)C2` (stereo not given), `CCCC12CCC(=O)C=C1c1c(cc(OCC(=O)O)c(Cl)c1Cl)C2` (stereo not given) is lower in pKa: 3.8 for the first, 3.6 for the second.

Compared with `COc1cccc(S(=O)(=O)Nc2cccn(CC(=O)NCc3ccc(C(=N)N)cc3F)c2=O)c1`, `Cc1ccc(NS(=O)(=O)Cc2ccccc2)c(=O)n1CC(=O)NCc1ccc(C(=N)N)c(F)c1` is lower in pKa: 9.4 for the first, 9.2 for the second.

Going from `COc1cc(NS(C)(=O)=O)ccc1Nc1c2ccccc2nc2c(C#N)cccc12` to `COc1cc(NS(C)(=O)=O)ccc1Nc1c2ccccc2nc2c(F)cccc12`, the pKa rises from 4.87 to 6.33.

First: COc1cc(NS(C)(=O)=O)ccc1Nc1c2ccccc2nc2c(C(=O)NCC(O)CO)cccc12 (stereo not given)
Second: COc1cc(NS(C)(=O)=O)ccc1Nc1c2ccccc2nc2c(OC)cccc12
The pKa of the first is lower: 6.34 for the first, 7.39 for the second.

First: Nc1ccc(CC(C(=O)O)N(CCN(CC(=O)O)CC(=O)O)CCN(CC(=O)O)CC(=O)O)cc1 (stereo not given)
Second: Cc1nc(N)nc(C)c1CNC(=O)Cn1c(C)ccc(NS(=O)(=O)Cc2ccccc2)c1=O
The pKa of the first is higher: 10.2 for the first, 4.7 for the second.

Going from `CCC1(CCC(C)C)C(=O)N=C(O)NC1=O` (stereo not given) to `CCCCCCOC(=O)NCCCC(C)Nc1cc(OC)cc2cccnc12` (stereo not given), the pKa rises from 7.8 to 16.2.

First: COc1ccnc(C[S+]([O-])c2nc3cc(OC(F)F)ccc3[n-]2)c1OC.[Na+] (stereo not given)
Second: COc1cc(NS(C)(=O)=O)ccc1Nc1c2ccccc2nc2ccc(N)cc12
The pKa of the first is lower: 3.9 for the first, 7.37 for the second.

`CN(C)c1ccc(Nc2c3ccccc3nc3ccccc23)cc1` and `CNc1ccc(Nc2c3ccccc3nc3ccccc23)cc1` are within 0.2 log units of each other in pKa: 8.46 for the first, 8.42 for the second.

Going from `Cc1cc(Nc2c3ccccc3nc3ccccc23)ccc1NS(C)(=O)=O` to `COc1ccc2nc3ccccc3c(Nc3ccc(NS(C)(=O)=O)cc3)c2c1`, the pKa falls from 7.08 to 6.87.

Compared with `COC(=O)Nc1ccc(Nc2c3ccccc3nc3ccccc23)cc1`, `NS(=O)(=O)Cc1ccc(Nc2c3ccccc3nc3ccccc23)cc1` is lower in pKa: 7.64 for the first, 7.05 for the second.

Going from `COC(=O)[C@H]1[C@H]2C[C@@H]3c4[nH]c5cc(OC)ccc5c4CCN3C[C@H]2C[C@@H](OC(=O)c2cc(OC)c(OC)c(OC)c2)[C@@H]1OC` to `Cc1c(-c2noc(-c3ccc(OC(C)C)c(C#N)c3)n2)cnc2c1CCN(C(CO)CO)C2`, the pKa falls from 7.25 to 6.2.

Compared with `CCCOC(=O)c1ccc(OS(N)(=O)=O)cc1`, `CC1=CN(c2ccc(S(N)(=O)=O)cc2)C(C2C=CN(C)C=C2)N1` (stereo not given) is lower in pKa: 8.03 for the first, 7.26 for the second.

Compared with `CS(=O)(=O)Nc1ccc(Nc2c3ccccc3nc3cnccc23)cc1`, `CS(=O)(=O)Nc1ccc(Nc2c3ccccc3nc3cc(N=[N+]=[N-])ccc23)cc1` is higher in pKa: 5.32 for the first, 7 for the second.

Compared with `Cc1cccc(C)c1N=C1NCCN1`, `Cc1cc(Cl)c(N=C2NCCN2)c(Cl)c1` is lower in pKa: 10.5 for the first, 8.29 for the second.

First: N[C@@H]1C[C@]1(F)c1ccccc1
Second: CCOC(=O)C1(c2ccccc2)CCN(C)CC1
The pKa of the first is lower: 6.98 for the first, 8.7 for the second.

`CC(C)c1ccccc1Nc1c2ccccc2nc2ccccc12` and `Nc1cccc(Nc2c3ccccc3nc3ccccc23)c1` are within 0.2 log units of each other in pKa: 7.64 for the first, 7.58 for the second.

First: C[N+](C)(C)Cc1ccc(S)cc1
Second: CC(C)(C)NCc1ccc(S(=O)(=O)c2csc(S(N)(=O)=O)c2)cc1.Cl
The pKa of the first is lower: 5.5 for the first, 8.08 for the second.

Going from `Cc1ccc(-c2nc3ccc(C)cn3c2CC(=O)N(C)C)cc1` to `CN(C)CCNC(=O)c1cccc2ccc(-c3ccccc3)nc12`, the pKa falls from 6.02 to 2.75.

Going from `C[C@H](CCC(=O)O)[C@H]1CC[C@H]2[C@@H]3[C@@H](O)C[C@@H]4C[C@H](O)CC[C@]4(C)[C@H]3CC[C@]12C` to `CC(=O)N[C@@H](Cc1cc(F)cc(F)c1)[C@H](O)CNC1(c2cccc(C(C)(C)C)c2)CCCCC1`, the pKa rises from 5.08 to 8.1.

First: CNc1ccnc(N2CCc3ccccc3C2)c1
Second: Cc1cnc(NCC(F)(F)c2ccccc2)c(=O)n1CC(=O)NCc1cnc(N)cn1
The pKa of the first is higher: 8.9 for the first, 2.7 for the second.

First: Cn1ccnc1F
Second: Nc1ncc[nH]1
The pKa of the first is lower: 2.3 for the first, 8.46 for the second.

Going from `OB(O)C1=CCCS1` to `Oc1nsc2c1CNCC2`, the pKa rises from 7.16 to 9.2.

Compound `CNC(=C[N+](=O)[O-])NCCSCc1ccc(CN(C)C)o1` has a pKa of 8.47.

In the case of `CC(C(=O)O)c1ccc(-c2ccccc2)c(F)c1` (stereo not given), the pKa is reported as 4.6 and 4.2.
